Results reported in patent US5134150A, “Inhibition of the 5-lipoxygenase pathway” (priority 1989, dated 1992).
Where two headings read alike, the source gives them in different places. One block for each compound: values may come before it.

Tests used:
[1] = tested on: area of infarction following coronary occlusion; details: dogs; cited from earlier work
lipoxygenase = details: in vitro; cited from earlier work
psoriasis = details: in vivo; cited from earlier work
[2] = tested on: LTC4 production by human monocytes; experiment: LTC4 production by human monocytes; assay type: cell-based; design: key to IC50, LTC4 production: NS = not significant; details: A23187-stimulated human monocytes; for IC50: Monocyte
Experimental: The compounds of Formula (I) were evaluated for their ability to inhibit the production of LTC4 by human monocytes according to the following assay. Human monocytes were prepared from whole blood supplied by the American Red Cross. The blood was fractinated by a two-step procedure employing sedimentation on Ficoll followed by sedimentation on Percoll. […] Non-adherent cells were removed by washing. […] When drugs were evaluated, they were added to the cells 30 minutes prior to the A23187. Supernatants were collected, […] by centrifugation and stored frozed at -20° C. until assay. The LTC4 content was determined by using a New England Nuclear Leukotriene C-4 (^3 H) RIA Kit as per instructions.

[3] = tested on: 5-lipoxygenase and LTA4 synthetase; experiment: Di-HETE / LTB4 production by high speed supernatant of RBL-1 cells; assay type: biochemical; details: RBL-1 high speed supernatant; Table 9A; read-out: 5-LO IC50 (LTB4 production)
Experimental: (§1) For in vitro experiments, compounds were dissolved at appropriate concentrations in ethanol or DMSO (dimethylsulfoxide) (final concentration≤1.0%) and then diluted to final concentrations using the buffers indicated in the text.
(§2) The activities of these enzymes in extracts of RBL-1 cells were assayed using the method of Jakschik and Lee, Nature, 287, 51-52 (1980). RBL-1 cells were obtained from the American Type Culture Collection (#CRL 1378) and were grown at 37° C. (5% CO2 in air) in spinner culture in MEM supplemented with 10% heat inactivated fetal calf serum. Harvested cells were washed with 50 mM sodium phosphate buffer, pH 7.0, containing 1 mM EDTA and 0.1% gelatin, resuspended in fresh buffer (5×10^7 cells/ml) and disrupted by nitrogen cavitation using the Parr bomb at 750 psi for 10 min. The broken cell extract was then centrifuged at 10,000× g for 20 minutes (min) and the supernatant centrifuged at 100,000 xIg for 60 min. Aliquots (0.25 mls) of the supernatant were preincubated with or without drugs for 10 min, after which 10 μl CaCl2 (50 mM) was added and the reaction was initiated with 2.5 μl of 2.5 mM arachidonic acid-1-^14 C (final concentration was 25 μM; specific activity 20,000 dpm/nmole). After incubation for 3 min at 37° C., the reaction was terminated by addition of 2 volumes (0.5 ml) ice cold acetone and the sample was allowed to deproteinize on ice for 10 min prior to centrifugation at 1,000× g for 10 min. The deproteinized supernatant was adjusted to pH 3.5 with 2N formic acid and extracted with 2 volumes of ice cold ethyl acetate. The extracted samples were dried under argon, redissolved in ethyl acetate and applied to Whatman LK5D thin layer chromatography (TLC) plates which were developed using the A-9 solvent system [organic phase of ethyl acetate: 2,2,5-trimethylpentane:acetic acid: water (110:50:20:10)] described by Hamberg and Samuelsson, J. Biol. Chem., 241, 257-263 (1966). Arachidonic acid, 5-HETE, LTB4 and PGD2 were quantified with a Berthold LB 2832 autoscanner.
(§3) The 5-lipoxygenase and LTA4 synthetase activities were further studied under the following conditions. An additional centrifugation of the RBL-1 supernatant was run at 100,000× g for 60 min, to remove the particulate cyclooxygenase activity. Sample incubation was done under conditions similar to those described above, i.e., 2 mM CaCl2 and […] arachidonic acid-1-^14 C, however, with an incubation time of 5 min at 5° C. Under these conditions, only the 5-lipoxygenase pathway metabolites were detectable. The 5-HETE and di-HETEs were formed at a linear rate, and substantial amounts of the arachidonic acid-1-^14 C substrate were utilized.

[4] = tested on: Arachidonic Acid-Induced Inflammation of the Mouse Ear; experiment: Arachidonic acid-induced mouse ear inflammation; assay type: in vivo, mouse (male Balb/c); details: for inhibition in vivo at 50 mg/kg: Mus musculus, 1 h, Table 7A, read-out: % Inhibition of Ear Swelling
Excerpt: (§4) In the following Examples where mice were used, they were male Balb/c mice (20-28 g), and where rats were used, they were male Lewis rats (180-210 g). All mice and rats were obtained from Charles River Breeding Laboratories, Kingston, N.Y. Within a single experiment, mice and rats were sex and age matched.
(§5) The compounds of Formula (I) were used either as the free base or in the appropriate salt form. Levamisole was used as the hydrochloride salt. The compounds were homogenized in 0.5% tragacanth. Compounds were administered by gavage at the indicated dose in a final volume of 10 ml/kg. Nordihydroguaiaretic acid (NDGA) was solubilized in dimethylacetamide and diluted with olive oil for subcutaneous administration.
Arachidonic acid in acetone ([…]) was applied to the inner surface of the left ear. The thickness of both ears was then measured with a dial micrometer one hour after treatment, and the data were expressed as the change in thickness (10^-3 cm) between treated and untreated ears.
Test compounds were given orally in 0.5% tragacanth at the times indicated in the text prior to the topical application of arachidonic acid.
Parenteral administration of compound was accomplished by subcutaneous injection of solution as indicated.

5-Lipoxygenase = target: T1, 5-Lipoxygenase (Rattus norvegicus, UniProt P12527); experiment: 5-HETE production by high speed supernatant of RBL-1 cells; assay type: biochemical; details: for IC50: RBL-1 high speed supernatant, Table 8A
T1 construct: The activities of these enzymes in extracts of RBL-1 cells were assayed; host or cells: RBL-1
T1 sequence (P12527 1-673): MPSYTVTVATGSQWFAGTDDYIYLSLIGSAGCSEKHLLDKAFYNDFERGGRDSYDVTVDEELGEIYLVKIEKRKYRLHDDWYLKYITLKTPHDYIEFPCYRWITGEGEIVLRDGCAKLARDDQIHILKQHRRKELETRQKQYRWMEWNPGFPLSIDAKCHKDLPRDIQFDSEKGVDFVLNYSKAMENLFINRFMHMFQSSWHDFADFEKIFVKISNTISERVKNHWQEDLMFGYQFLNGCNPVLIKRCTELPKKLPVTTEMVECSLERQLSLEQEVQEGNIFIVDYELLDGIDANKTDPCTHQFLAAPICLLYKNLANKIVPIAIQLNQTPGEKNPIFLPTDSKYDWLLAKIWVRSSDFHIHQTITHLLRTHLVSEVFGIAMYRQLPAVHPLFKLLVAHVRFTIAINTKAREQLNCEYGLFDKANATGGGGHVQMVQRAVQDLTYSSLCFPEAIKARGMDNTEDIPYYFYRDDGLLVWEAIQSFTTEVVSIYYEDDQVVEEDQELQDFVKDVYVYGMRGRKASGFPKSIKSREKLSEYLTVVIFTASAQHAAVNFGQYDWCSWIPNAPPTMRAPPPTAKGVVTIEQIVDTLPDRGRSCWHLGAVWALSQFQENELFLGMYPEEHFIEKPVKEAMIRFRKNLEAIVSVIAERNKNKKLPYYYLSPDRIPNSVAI
Experimental: as §1, §2, §3

[5] = tested on: Infiltration of Polymorphonuclear Leukocytes into Sites of Carrageenan-Induced Inflammation; experiment: Mouse carrageenan peritonitis (PMN infiltration); assay type: in vivo, mouse (male Balb/c); details: carrageenan peritonitis, mice
Excerpt: as §4, §5
Mice were pretreated with either the test compound or vehicle one hour before the intraperitoneal injection of a 1.0% carrageenan suspension in saline (0.2 ml/mouse). Mice were sacrificed by cervical dislocation two hours after injection, and 3.0 ml of phosphate buffered saline, without Ca^++ or Mg^++, was injected into the peritoneum. Following massage, a 2.0 ml aliquot of the lavage fluid was removed, and the total cell count determined on a Coulter counter and differential cell count determined by microscopic examination of Giesma-stained slides.

[6] = tested on: Experimental Allergic Encephalomyelitis Induced in Female Lewis Rats; experiment: Experimental allergic encephalomyelitis, hindleg paralysis; assay type: in vivo, rat (female Lewis); details: 0.3 mg/kg/day, p.o.
Experimental: EAE is induced in Female (Charles River) Lewis rats by a single intradermal injection of 0.1 ml of an encephalitogenic emulsion consisting of equial parts of a 50% w/v homogenate of guinea pig spinal cord and mid-brain in 0.5% aqueous phenol and Freund's complete adjuvant (4 mg/ml killed, dried M. butyricum) into a hindpaw (left) footpad. […] Any animal which becomes paralyzed during the course of the experiment is considered to have developed EAE whether or not the paralysis is permanent. Test compounds are administered daily beginning on the day of injection, for 19 days, exclusive of days 5, 6 12 and 13. Drug activity is determined by comparing the indicidence of EAE (paralysis) of the treated group with a control (vehicle) group. The level of significant difference between the treated groups and control groups is determined by a Chi-square test using a 2×2 contingency table. Body weight changes from day 0 are also statistically compared to the control group using a Student "t" test.

[7] = tested on: LTB4 and 5-HETE production; details: in vitro; cited from earlier work
rheumatoid arthritis = details: preliminary observation; cited from earlier work
[8] = 25 mg/kg, p.o., pretreated at 2 hrs

Structure (SMILES): NC1=NN(c2cccc(C(F)(F)F)c2)CC1 [BW755-C]
Area of infarction, in words [1]: reduced

Structure (SMILES): CC(C(=O)O)c1ccc2oc(-c3ccc(Cl)cc3)nc2c1 (stereo not drawn) [Benoxaprofen]
Lipoxygenase inhibitory activity, in words (lipoxygenase): in vitro lipoxygenase inhibitory activity | Effect on psoriasis, in words (psoriasis): promising effect

Structure (SMILES): C[C@@H]1C[C@H]2[C@@H]3CCC4=CC(=O)C=C[C@]4(C)[C@@]3(F)[C@@H](O)C[C@]2(C)[C@@]1(O)C(=O)CO [Dexamethasone, reference compound]
PMN infiltration, result in words [5]: effective | % Change (ear thickness) [4, 8]: -35% | Increase in Ear Thickness at 1 Hour [4, 8]: 18.2 ± 4.1 × 10-3 cm | Mouse ear edema, result in words ([4]; mouse, in vivo): only moderately effective

Structure (SMILES): CN(Cc1cnc2nc(N)nc(N)c2n1)c1ccc(C(=O)N[C@@H](CCC(=O)O)C(=O)O)cc1 [Methotrexate]
Hindleg paralysis - cumulative incidence, day 9 to 13 [6]: 0/11 | Hindleg paralysis - cumulative incidence, day 14 to 18 [6]: 0/11

Structure (SMILES): O=C(O)c1cc(/N=N/c2ccc(S(=O)(=O)Nc3ccccn3)cc2)ccc1O [Sulfasalazine]
Inhibition of LTB4 and 5-HETE production, in words [7]: inhibit LTB4 | Efficacy in rheumatoid arthritic patients, in words (rheumatoid arthritis): efficacy, including remission

More lines, main results first:

IC50, LTC4 production [2]: NS | IC50 [3]: 17 µM
Structure (SMILES): Fc1ccc(-c2c(-c3ccncc3)nc3n2CCS3)cc1 [Compound 12]
inhibition in vivo at 50 mg/kg ([4]; 50 mg/kg s.c. or i.p.): 58%

IC50 [2]: 1.2 µM | IC50 [3]: 0.1 µM
Structure (SMILES): CCNc1ccc(-c2nc3n(c2-c2ccc(NCC)cc2)CCS3)cc1 [Compound 17]
inhibition in vivo at 50 mg/kg ([4]; 50 mg/kg s.c. or i.p.): 38%

IC50 [2]: 9.9 µM | IC50 [3]: 1.9 µM
Structure (SMILES): COc1ccc(-c2nc3n(c2-c2ccncc2)CCS3)cc1 [Compound 18]
inhibition in vivo at 50 mg/kg ([4]; po, 50 mg/kg p.o.): 40%

IC50 (5-Lipoxygenase): > 10 µM | inhibition at 10 µM (5-Lipoxygenase; read-out: inhibition of 5-HETE at 10 μM, 10 μM, Table 8A footnote): 46% | IC50 [3]: > 10 µM
Structure (SMILES): Fc1ccc(-c2nc3n(c2-c2ccc(F)cc2)CCS3)cc1 [Compound 26]

IC50 (5-Lipoxygenase): 28 µM
Structure (SMILES): FC(F)(F)c1ccc(-c2nc3n(c2-c2ccc(C(F)(F)F)cc2)CCS3)cc1 [Compound 27]

IC50 [2]: 0.5 µM | IC50 [3]: 1000 µM
Structure (SMILES): [O-][S+]1CCn2c1nc(-c1ccc(F)cc1)c2-c1ccncc1 (stereo not drawn) [Compound 28, 5-(4-pyridyl)-6-(4-fluorophenyl)-2,3-dihydroimidazo[2,1-b]thiazole-S-oxide]
inhibition in vivo at 50 mg/kg ([4]; 50 mg/kg s.c. or i.p.): 69%

IC50 [2]: 0.5 µM | IC50 [3]: > 100 µM
Structure (SMILES): O=S1(=O)CCn2c1nc(-c1ccc(F)cc1)c2-c1ccncc1 [Compound 29, 5-(4-pyridyl)-6-(4-fluorophenyl)-2,3-dihydroimidazo[2,1-b]thiazole-S-dioxide]
inhibition in vivo at 50 mg/kg ([4]; po, 50 mg/kg p.o.): 67%
